Measured values reported in patent US20250304578A1, “NITROGEN-CONTAINING FUSED HETEROCYCLIC COMPOUNDS OF N-SULFONAMIDE AND USE THEREOF” (NUTSHELL THERAPEUTICS (SHANGHAI) CO., LTD., priority 2023, published 2025).
Read-outs that look alike come from different tables or passages of the source. One block for each molecule: values may come before it.

How the values were obtained:
[1] = Metabolic stability in liver microsomes; assay type: in vitro ADME; conditions: for microsomal CLint at 1 μM: read-out: In vitro Clint (μL/min/mg protein); for half-life at 1 μM: read-out: In vitro t1/2
Method: The test compound and the positive control compound (dextromethorphan as a control compound) were dissolved respectively in DMSO to prepare a stock solution with a concentration of 10 mM, and the above stock solution was diluted into 200 μM working solution with DMSO. 8.709 g of potassium hydrogen phosphate (K2HPO4) was dissolved in 950 mL of water, and the pH value of the solution was adjusted to 7.4 with hydrochloric acid, and then the volume was adjusted to 1000 mL with water. After filtration using a 0.22 μm filter membrane, the mixture was stored in a 4° C. refrigerator for later use. After liver microsomes of various species (protein concentration of 20 mg/mL) were thawed in a 37° C. water bath, the liver microsomes were diluted with a phosphate buffer respectively to obtain a liver microsome working solution with protein concentration of 0.629 mg/mL. 5 mM NADPH solution was prepared using the above phosphate buffer for later use. 1 mg/mL stock solution of terfenadine/tolbutamide was prepared with DMSO and then diluted with a 50% methanol/50% acetonitrile mixed solution to a reaction stop solution containing 5/10 ng/mL (terfenadine/tolbutamide) internal standard.
238.5 μL of liver microsome working solutions of various species were added to a 1.1 mL microtube, and 1.5 μL of the test compound working solution or the positive control compound (dextromethorphan) working solution (200 μM) was added respectively, mixed well, and pre-incubated in a 37° C. water bath for 5 minutes. 60 μL of NADPH solution was added to start the reaction, and after mixing well, at the time points of 0, 5, 15, 30, and 60 minutes after the reaction, 30 μL of the reaction mixture was respectively pipetted and added to 300 μL of the reaction stop solution. Samples from all time points were vortexed vigorously for 1 minute and centrifuged at 4000 rpm for 15 minutes at 4° C. 100 μL of the supernatant was added to 100 μL of pure water and mixed well for LC-MS/MS analysis.
The slope (ke) was determined by plotting the natural logarithm of the percentage of compound remaining against time, and the Tin and intrinsic clearance (CLint) were calculated based on the first-order kinetic formula: […]
The compound remaining rate is calculated as follows:
Intrinsic clearance CLint (μL/min/mg protein)=0.693*1000/T1/2/protein concentration (0.5 mg protein/mL)

[2] = Metabolic stability test in hepatocytes; assay type: in vitro ADME; conditions: for hepatocyte CLint at 1 μM: read-out: In vitro Clint (μL/min/10^6 cells); for half-life at 1 μM: read-out: In vitro t1/2
Method: The test compound and the control drug verapamil powder were prepared into a high concentration stock solution using DMSO, and diluted to a 100 μM working solution with 50% acetonitrile/water before use, with final concentrations of 1 μM for the test compound and verapamil.
• 1) 49.5 mL of Williams' Medium E and 0.5 mL GlutaMAX were mixed as the incubation solution. The hepatocyte recovery solution and the incubation solution were pre-warmed in a 37° C. water bath for at least 15 minutes prior to use. • 2) A tube of cryopreserved hepatocytes was taken, ensuring that the hepatocytes were still in a cryogenic frozen state prior to resuscitation. The hepatocytes were quickly placed in a 37° C. water bath and gently shaken until all ice crystals were completely dispersed, sprayed with 70% ethanol and transferred to a biosafety cabinet. • 3) The contents of the hepatocyte tube were poured into a centrifuge tube containing 50 mL of recovery medium, which were centrifuged at 100 g for 10 minutes. After centrifugation, the recovery medium was aspirated, and sufficient incubation medium was added to obtain a cell suspension having a cell density of approximately 1.5×10^6 cells/mL. • 4) Cellometer Vision was used to count hepatocytes and determine the density of viable cells. The survival rate of hepatocytes must be greater than 75%. The hepatocyte suspension was diluted with incubation medium to a viable cell density of 0.5×10^6 cells/mL. • 5) A portion of hepatocyte suspension with a density of 0.5×10^6 cells/mL was boiled in water for 5 minutes to inactivate as a negative control. After cells were inactivated, substrate conversion mediated by non-cellular enzymes could be easily investigated.
• 1) 198 μL of the suspension of live or inactivated cells was transferred to a 96-well deep-well plate, which was then placed on a vortexer and preheated in an incubator for 10 minutes. Live cells were incubated in duplicate, while inactivated cells were incubated in single. • 2) 2 μL of 100 μM test compound or verapamil was added to each well for the reaction initiation, and the deep-well plate was placed back on the incubator vortexer. • 3) 25 μL of the suspension were taken from the incubated samples at 0, 15, 30, 60, 90, and 120 minutes, respectively, and added to 150 μL of acetonitrile containing internal standards (200 nM alprazolam, 200 nM labetalol, 2 μM ketoprofen, and 200 nM caffeine) to terminate the reaction. The mixture was vortexed for 10 minutes and centrifuged at 3220 g and 4° C. for 30 minutes. After centrifugation was completed, 100 μL of the supernatant and 100 μL of ultra-pure water were mixed well for UPLC-MS/MS analysis detection.
All data calculations were performed using Microsoft Excel software. Peak areas were detected by extracting the ion chromatogram. The in vitro half-life (t1/2) of the parent drug was detected by linear fitting of the natural logarithm of the percentage of parent drug […] with time.
The in vitro half-life (t1/2) was calculated by the slope: […]
In vitro intrinsic clearance (unit μL/min/10^6 cells) was calculated using the following formula:
[formula] • V=incubation volume per well (0.2 mL); • N=number of cells per well (0.1×10^6 cells)

NUGC-3 cells = assay: Anti-proliferation effect on NUGC-3 cells (Cell Counting Kit-8); assay type: cell-based; conditions: Homo sapiens, NUGC-3, 120 h; 5 days of treatment
Method: Cell line NUGC-3 (JCRB, JCRB0822) was cultured in RPMI 1640 (Invitrogen, 11875-085) medium supplemented with 10% (v/v) fetal bovine serum (BI, 04-002-1A), according to the standard instructions of the American Type Culture Collection. The cell line was authenticated by short tandem repeat profiling.
In the proliferation assay, 1000 NUGC-3 cells were seeded in a 96-well flat clear bottom, TC-treated plate (Corning, 3903) in 200 μL of medium per well, and allowed to recover overnight in culture medium. Compounds were added with increasing concentration, with DMSO treatment serving as a […] control. After 5 days of treatment, the plate was equilibrated to room temperature for 30 minutes, and the number of living cells was measured by the addition of the Cell Counting Kit-8 reagent (MCE, HY-K0301). Absorbance was measured on an Enspire (Perkin elme). The relative viability of each group was presented as the percentage change relative to the […] control group and then fit to a four-parameter logit non-linear curve using the program XLFit (IDBS)

CYP3A4/5 = assay: Multi-concentration inhibitory activity curve of CYP3A4/5 enzymes; assay type: in vitro ADME; conditions: pH 7.4, probe testosterone; human liver microsomes; substrate testosterone; read-out: CYP3A4/5 IC50 (μM) (Testosterone)
Method: The buffer was filtered through a 0.45 μm filter.
Liver microsome working solution (final system concentration of 0.5 mg/mL) was prepared. […] The above stock solution was diluted with acetonitrile (4-fold dilution, 6 non-zero concentrations).
The half-maximal inhibitory concentration (IC50) was calculated using Graph Pad Prism.

[3] = ICR/CD-1, pH 7.4, Mouse liver microsomes
[4] = Sprague Dawley, pH 7.4, Rat liver microsomes
[5] = cryopreserved hepatocytes in suspension, Human hepatocytes
[6] = cryopreserved hepatocytes in suspension, Mouse hepatocytes
[7] = cryopreserved hepatocytes in suspension, Rat hepatocytes
[8] = cryopreserved hepatocytes, Human hepatocytes
[9] = cryopreserved hepatocytes, Mouse hepatocytes
[10] = cryopreserved hepatocytes, Rat hepatocytes

microsomal CLint at 1 μM [1, 3]: 83.9 µL/min/mg | half-life at 1 μM [1, 3]: 17 min | microsomal CLint at 1 μM [1, 4]: 61.5 µL/min/mg | half-life at 1 μM [1, 4]: 23 min | microsomal CLint at 1 μM ([1]; pH 7.4, Human liver microsomes): 28.3 µL/min/mg | half-life at 1 μM ([1]; pH 7.4, Human liver microsomes): 49 min | hepatocyte CLint at 1 μM [2, 5]: 18.4 µL/min/1e6 cells | half-life at 1 μM [2, 5]: 75 min | hepatocyte CLint at 1 μM [2, 6]: 31.8 µL/min/1e6 cells | half-life at 1 μM [2, 6]: 44 min | hepatocyte CLint at 1 μM [2, 7]: 15.7 µL/min/1e6 cells | half-life at 1 μM [2, 7]: 88 min
Structure (SMILES): CNC(=O)c1ccc(NCC#Cc2cc3c(N[C@@H]4CCN(C)C[C@@H]4F)cccn3c2CC(F)(F)F)c(OC)c1 [Cpd-C, 4-((3-(8-(((3S,4R)-3-Fluoro-1-methylpiperidin-4-yl)amino)-3-(2,2,2-trifluoroethyl)indolizin-2-yl)prop-2-yn-1-yl)amino)-3-methoxy-N-methylbenzamide, reference compound]

Structure (SMILES): [2H]C([2H])([2H])Oc1nc(C(=O)NS(C)(=O)=O)ccc1NCC#Cc1cc2c(N[C@H]3CCN(C)C[C@H]3F)cccn2c1CC(F)(F)F [Cpd-8, 5-((3-(8-(((3R,4S)-3-Fluoro-1-methylpiperidin-4-yl)amino)-3-(2,2,2-trifluoroethyl)indolizin-2-yl)prop-2-yn-1-yl)amino)-6-(methoxy-d3)-N-(methylsulfonyl)picolinamide]
IC50 (NUGC-3 cells): 340 nM

Structure (SMILES): [2H]C([2H])([2H])Oc1nc(C(=O)NS(C)(=O)=O)ccc1NCC#Cc1cc2c(N[C@@H]3CCN(C)C[C@H]3F)cccn2c1CC(F)(F)F [Cpd-10, 5-((3-(8-(((3R,4R)-3-Fluoro-1-methylpiperidin-4-yl)amino)-3-(2,2,2-trifluoroethyl)indolizin-2-yl)prop-2-yn-1-yl)amino)-6-(methoxy-d3)-N-(methylsulfonyl)picolinamide]
IC50 (NUGC-3 cells): 900 nM

hepatocyte CLint at 1 μM [2, 8]: 16.8 µL/min/1e6 cells | half-life at 1 μM [2, 8]: 82 min | hepatocyte CLint at 1 μM [2, 9]: 198 µL/min/1e6 cells | half-life at 1 μM [2, 9]: 7 min | hepatocyte CLint at 1 μM [2, 10]: 63.8 µL/min/1e6 cells | half-life at 1 μM [2, 10]: 22 min | IC50 at 10 min (CYP3A4/5): 3.2 µM
Structure (SMILES): COc1cc(S(C)(=O)=O)ccc1NCC#Cc1nc2c(N[C@@H]3CCN(C)C[C@@H]3F)cccn2c1CC(F)(F)F [Cpd-B, reference compound]

Structure (SMILES): [2H]C([2H])([2H])Oc1nc(C(=O)NS(=O)(=O)C2CC2)ccc1NCC#Cc1cc2c(N[C@@H]3CCN(C)C[C@@H]3F)cccn2c1CC(F)(F)F [Cpd-4, N-(Cyclopropylsulfonyl)-5-((3-(8-(((3S,4R)-3-fluoro-1-methylpiperidin-4-yl)amino)-3-(2,2,2-trifluoroethyl)indolizin-2-yl)prop-2-yn-1-yl)amino)-6-(methoxy-d3)picolinamide]
IC50 (NUGC-3 cells): 97 nM

Structure (SMILES): COc1nc(C(=O)NS(=O)(=O)C2CC2)ccc1NCC#Cc1cc2c(N[C@@H]3CCN(C)C[C@@H]3F)cccn2c1CC(F)(F)F [Cpd-7, N-(Cyclopropylsulfonyl)-5-((3-(8-(((3S,4R)-3-fluoro-1-methylpiperidin-4-yl)amino)-3-(2,2,2-trifluoroethyl)indolizin-2-yl)prop-2-yn-1-yl)amino)-6-methoxypicolinamide]
IC50 (NUGC-3 cells): 70 nM

Structure (SMILES): [2H]C([2H])([2H])Oc1nc(C(=O)NS(=O)(=O)CC2CC2)ccc1NCC#Cc1cc2c(N[C@@H]3CCN(C)C[C@@H]3F)cccn2c1CC(F)(F)F [Cpd-5, N-((Cyclopropylmethyl)sulfonyl)-5-((3-(8-(((3S,4R)-3-fluoro-1-methylpiperidin-4-yl)amino)-3-(2,2,2-trifluoroethyl)indolizin-2-yl)prop-2-yn-1-yl)amino)-6-(methoxy-d3)picolinamide]
IC50 (NUGC-3 cells): 81 nM

Structure (SMILES): [2H]C([2H])([2H])Oc1nc(C(=O)NS(C)(=O)=O)ccc1NCC#Cc1cc2c(N[C@H]3CCN(C)C[C@@H]3F)cccn2c1CC(F)(F)F [Cpd-9, 5-((3-(8-(((3S,4S)-3-Fluoro-1-methylpiperidin-4-yl)amino)-3-(2,2,2-trifluoroethyl)indolizin-2-yl)prop-2-yn-1-yl)amino)-6-(methoxy-d3)-N-(methylsulfonyl)picolinamide]
IC50 (NUGC-3 cells): 550 nM

Structure (SMILES): [2H]C([2H])([2H])Oc1nc(C(=O)NS(=O)(=O)CC(F)(F)F)ccc1NCC#Cc1cc2c(N[C@@H]3CCN(C)C[C@@H]3F)cccn2c1CC(F)(F)F [Cpd-6, 5-((3-(8-(((3S,4R)-3-Fluoro-1-methylpiperidin-4-yl)amino)-3-(2,2,2-trifluoroethyl)indolizin-2-yl)prop-2-yn-1-yl)amino)-6-(methoxy-d3)-N-((2,2,2-trifluoroethyl)sulfonyl)picolinamide]
IC50 (NUGC-3 cells): 190 nM
